This is an account of results in patent publication US9023875B2, “Macrocyclic compounds and methods of treatment” (University of Florida Research Foundation, Inc., priority 2007, dated 2015).

The structures appear in SMILES notation. Like-named read-outs stand apart in the source and are kept apart here. Starred links: 1 amine or outer side, 2 acyl side, 3 side chain; linkers in the order of their positions; H or OH if unused. Positions of bridges follow the written chain, without caps; N, C: chain ends. Non-standard residues stand in square brackets, D forms with d. Residues, ends and D or L forms follow the SMILES beside them. Chains are numbered I, II in the order given. Actinocin(9to1) = Cc1c2oc3c(C)ccc(C(=O)[*:1])c3nc-2c(C(=O)[*:2])c(N)c1=O; NMeV = CN[C@H](C(=O)O)C(C)C; Sar = CNCC(=O)O

For series [1], the system named is HeLa nuclear extract HDACs (class I HDACs 1, 2, and 3). Kind of series: Cell-free enzymatic assay with HDAC-enriched HeLa nuclear protein extract. The settings on record: fluor de Lys substrate. Format: biochemical. The procedure: Largazole (1) inhibited HDAC activity from a HeLa cell nuclear protein extract rich in class I HDACs 1, 2, and 3 (BIOMOL); however, it is possible that the thioester is cleaved under assay conditions. To investigate that thiol 9 is a reactive species, we liberated 9 from the acetyl analog 8 of largazole (1) and measured enzymatic activity directly; thiol 9 inhibited the HDACs in the nuclear extract of HeLa cells with a similar IC50 value (Table 3).
Assay buffer (25 ul in blank and 10 ul in control), 1 μM triehostatin and test inhibitors (ranging from 10 μM to 300 pM) are added to test sample wells of the microtiter plate. HDAC-enriched nuclear protein extract from HeLa cells (BIOMOL) (5 μg in 15 uL) is added to all wells except in the no-enzyme control. The assay plate is equilibrated at 37° C., and then 25 μl of substrate fluor de Lys™ substrate is added to a final concentration of 116 μM. HDAC reaction is allowed to proceed for 15 min and then stopped by addition of 50 μl per well of 1× fluor de Lys™ Developer containing TSA at 2 μM. After developer addition, plates are incubated for 15 min at 37° C. and fluorescence is read (Ex 360 nm, Em 460 nm).

The next series relates to HDAC. Kind of series: In vitro cellular HDAC activity assay (fluor de Lys substrate) in HCT-116 cells. Particulars: 8 h. Format: cell-based. As for the experimental part:
HCT-116 cells are seeded in 100 μL of medium per well at a density of 3.5×10^3 cells/well and grown for 24 h in a sterile 96-well solid bottom plate. The assay is carried out according to the manufacturer's instructions (BIOMOL). Briefly, after 24 h the medium iss replaced with 50 μL/well of medium containing 200 μM fluor de Lys™ substrate and 1 μM of trichostatin A (positive control) and test compounds (largazole, acetyl derivative) ranging from 1 μM to 3.2 nM ([…]) and thiol compound ranging from 10 μM to 300 pM. Plates are incubated at 37° C. for 8 h. After the treatment time, 50 μL per well of 1× fluor de Lys™ Developer containing TSA at 2 μM iss added. After developer addition, plates are incubated for 15 min at 37° C. and fluorescence is read (Ex 360 nm, Em 460 nm).

In the next series the test system is HCT-116 cells. Kind of series: HCT-116 growth inhibition. The format is cell-based. Particulars: Homo sapiens.
Series [2] concerns U2OS cells (fibroblastic osteosarcoma). Kind of series: cells. Format: cell-based. Particulars: for GI50: read-out: Growth-inhibitory activity (GI50), U2OS. The procedure: (§1) Cell culture medium was purchased from Invitrogen and fetal bovine serum (FBS) from Hyclone. Cells were propagated and maintained in DMEM medium (high glucose) supplemented with 10% FBS at 37° C. humidified air and 5% CO2.
(§2) Cells suspended in DMEM containing 10% FBS were plated in 96-well plates (MDA-MB-231: 12,000 cells; NMuMG: 5,000 cells; U20S: 5,000 cells; HT29: 10,000 cells; 1MR-32: 30,000 cells; NIH3T3: 5,000 cells) incubated (37° C., 5% CO2) and 24 h later treated with various concentrations of compound 1 or solvent control (1% EtOH). After another 48 h of incubation, cell viability was measured using MITT according to manufacturer's instructions (Promega).
(§3) MDA-MB-231 and NMuMG cells were also treated with paclitaxel (in DMSO), actinomycin D (in DMSO) and doxorubicin (in H2O) and corresponding solvent control (1%) in the same manner. GI50 and LC50 values were calculated as previously described (K. D. Paull, E. Hamel, L. Malspeis, In Cancer Chemotherapeutic Agents, W. E. Foye, Ed., American Chemical Society, Washington, D.C., 1995, pp. 10-11).
(§4) [formula] [formula] [T=absorbance in treated wells (48 h); T0=absorbance at time zero; C=absorbance in control wells (48 h)]

The subject of series [3] is NIH3T3 cells (nontransformed fibroblasts). Kind of series: cells. Particulars: for GI50: read-out: Growth-inhibitory activity (GI50), NIH3T3. Format: cell-based. The procedure: as §1, §2, §3, §4
Series [4] has as its system MDA-MB-231 cells (highly invasive transformed human mammary epithelial cells). Kind of series: cells. Format: cell-based. The procedure: as §1, §2, §3, §4
For series [5], the system named is NMuMG cells (nontransformed murine mammary epithelial cells). Kind of series: cells. Particulars: 48 h, read-out: Growth-inhibitory activity (GI50), NMuMG. Format: cell-based. As for the experimental part: as §1, §2, §3, §4
The next series relates to acetylated histone H3. Kind of series: Immunoblot analysis of acetylated histone H3 in HCT-116 cells. The settings on record: 8 h. Format: cell-based. The procedure: HCT-116 cells (650,000 cells/dish) are seeded in 10-cm dishes and 24 h later treated with various concentrations of largazole, trichostatin or solvent controls (EtOH for largazole and DMSO for trichostatin). Following incubation for 8 h, whole-cell lysates are prepared using PhosphoSafe lysis buffer (Novagen), proteins extracted, and protein concentration measured using the BCA method (Pierce). Cell lysates containing equal amounts of protein are separated by SDS-PAGE, transferred to PVDF membranes, probed with antibodies and detected with the Supersignal Femto Western blotting kit (Pierce). Anti-acetyl-histone H3 (Lys9/18) and anti-histone H3 primary antibodies are obtained from Millipore and horseradish peroxidase conjugated anti-rabbit secondary antibody is purchased from Cell Signaling.

Series [6] relates to IMR-32 cells (neuroblastoma cell line). Put plainly: Cell viability (MTT) assay, IMR-32. Format: cell-based. The settings on record: Homo sapiens, 48 h. As for the experimental part:
as §1, §2, §3, §4

In series [7] the test system is HT29 cells (colon cancer cell line). Kind of series: Cell viability (MTT) assay, HT29. The format is cell-based. The settings on record: Homo sapiens, HT-29, 48 h. The procedure: as §1, §2, §3, §4
Another series is described as follows: in vitro. Format: cell-based, murine. The settings on record: mouse, NMuMG cells, MTT, read-out: LC50 (cytotoxicity), NMuMG. The procedure:
as §1, §2, §3, §4

Setting [8] is: Homo sapiens, U2OS cells, 48 h, MTT.
The mark [9] stands for this setting: Mus musculus, NIH3T3 cells, 48 h, MTT.
Setting [10] is: Homo sapiens, MDA-MB-231, 48 h, MDA-MB-231 cells, 48 h, MTT, read-out: Growth-inhibitory activity (GI50), MDA-MB-231.
The mark [11] stands for this setting: Mus musculus, Epithelial cell, NMuMG cells, MTT.

The term IC50 denotes the point on the concentration scale where inhibition reaches its midpoint. Higher therefore signals weaker potency. In general, GI50 refers to the concentration that inhibits growth by half. As for `CC(=O)SCCC=CC1CC(=O)NCc2nc(cs2)C2=NC(C)(CS2)C(=O)NC(C(C)C)C(=O)O1` (centres unmarked) [Compound 8], the IC50 in series [1] was 52 ± 27 nM; with HDAC, 50 ± 18 nM. Further, in the series with HCT-116 cells, it took 33 ± 2 nM to inhibit growth by half (GI50).
Consider `CC(C)C1NC(=O)C2(C)CSC(=N2)c2csc(n2)CNC(=O)CC(C=CCCS)OC1=O` (centres unmarked) [Compound 9], for which the IC50 came to 42 ± 29 nM in series [1] and 209 ± 15 nM in the series with HDAC. Besides, in the series with HCT-116 cells, the 50% growth inhibitory concentration (GI50) worked out at 38 ± 5 nM.
On to `COc1cccc2c1C(=O)c1c(O)c3c(c(O)c1C2=O)C[C@@](O)(C(=O)CO)C[C@@H]3O[C@H]1C[C@H](N)[C@H](O)[C@H](C)O1` [Doxorubicin, reference compound], for which the GI50 was 220 nM in series [2] (setting [8]), 47 nM in [3] (setting [9]), 310 nM in series [4] (setting [10]) and 63 nM in [5] (setting [11]).
For `CC(=O)O[C@H]1C(=O)[C@@]2(C)[C@H]([C@H](OC(=O)c3ccccc3)[C@]3(O)C[C@H](OC(=O)[C@H](O)[C@@H](NC(=O)c4ccccc4)c4ccccc4)C(C)=C1C3(C)C)[C@]1(OC(C)=O)CO[C@@H]1C[C@@H]2O` [Paclitaxel, reference compound], the GI50 came out at 12 nM in series [2] (setting [8]), 6.4 nM in series [3] (setting [9]), 7 nM in series [4] (setting [10]) and 5.9 nM in [5] (setting [11]).
For `Cc1c2oc3c(C)ccc(C(=O)N[C@@H]4C(=O)N[C@H](C(C)C)C(=O)N5CCC[C@H]5C(=O)N(C)CC(=O)N(C)[C@@H](C(C)C)C(=O)O[C@@H]4C)c3nc-2c(C(=O)N[C@@H]2C(=O)N[C@H](C(C)C)C(=O)N3CCC[C@H]3C(=O)N(C)CC(=O)N(C)[C@@H](C(C)C)C(=O)O[C@@H]2C)c(N)c1=O` [Actinomycin D, reference compound] (I: T[dV]P[Sar][NMeV] / II: T[dV]P[Sar][NMeV]; ester I:1-I:C, II:1-II:C; linker I:N-II:N via Actinocin(9to1)), the GI50 in [2] (U2OS cells, 48 h, MTT) was 0.8 nM; in [3] (NIH3T3 cells, 48 h, MTT), 0.4 nM; in [4] (MDA-MB-231 cells, 48 h, MTT, read-out: Growth-inhibitory activity (GI50), MDA-MB-231), 0.5 nM; in series [5] (NMuMG cells, MTT), 0.3 nM.
For `CCCCCCCC(=O)SCC/C=C/[C@@H]1CC(=O)NCc2nc(cs2)C2=N[C@@](C)(CS2)C(=O)N[C@@H](C(C)C)C(=O)O1` [Largazole (1), largazole], the IC50 in [1] turned out to be 37 ± 11 nM; in the series on HDAC, 51 ± 3 nM. Moreover, the “Immunoblot of endogenous HDAC substrate acetylated histone H3” value in the series with acetylated histone H3 is on record as “same dose-response relationship”. For the same compound, the GI50 in series [6] came out at 16 nM; in the series with HCT-116 cells, 44 ± 10 nM; in [7] it was 12 nM; in series [2] (Homo sapiens, U2OS, 48 h), 55 nM; in series [3] (Mus musculus, NIH3T3, 48 h) it was 480 nM; in [4] (Homo sapiens, MDA-MB-231, 48 h, read-out: Growth-inhibitory activity (GI50), MDA-MB-231, MDA-MB-231 cells, 48 h, MTT), 8 nM. Besides, the GI50 in [4] (read-out: Growth-inhibitory activity (GI50), MDA-MB-231, MDA-MB-231 cells, 48 h, MTT) worked out at 7.7 nM; in series [5] (Mus musculus, Epithelial cell), 122 nM. Moreover, the CC50 in [7] (read-out: LC50 (cytotoxicity), HT29) came to 22 nM; in [2] (Homo sapiens, U2OS, 48 h, read-out: LC50 (cytotoxicity), U2OS), 94 nM. Besides, in “in vitro”, the CC50 at 48 h amounted to 272 nM. Further, the “Differential growth-inhibitory activity between transformed and nontransformed fibroblasts” value in series [2] (U2OS vs NIH3T3 (GI50)) is listed as 8 fold. Moreover, the “Toxicity (cytotoxicity) in NIH3T3” value in [3] (NIH3T3 cells, 48 h, MTT) is “no apparent toxicity”. For the same compound, the “Differential growth-inhibitory activity between transformed and nontransformed epithelial cells” value in series [4] (MDA-MB-231 vs NMuMG (GI50)) is given as 15 fold.
